Patent US4642309A, “Indolin-2-one derivatives preparation thereof and intermediates for the preparation thereof” (Boehringer Mannheim GmbH, priority 1983, dated 1987)
Where two headings read alike, the source gives them in different places.

Assays:
[1] = system: CSE reflex (arterial blood pressure); test: Vasodilating activity: weakening of the carotid occlusion (CSE) reflex blood pressure rise in anesthetized rabbits; type: in vivo, rabbit; conditions: for ED (30 mm Hg): Oryctolagus cuniculus, iv; for BQ (ID50 fcor / ED-30 mm Hg): ratio of beta-blocking ID50 to vasodilating ED-30
Experimental: Rabbits were anesthetized with 26%-urethane 5 ml/kg i.v. For a continual measurement of the arterial blood pressure a catheter was implanted into the Arteria femoralis. The blood pressure was measured by means of an electromechanical pressure transducer (Statham P 23/Db). The impulses were registered on a direct printer and after calibration evaluated with a mercury manometer. After determining the starting value, both carotid arteries (Aa. carotides) were occluded for 2 min and thereby the blood pressure temporarily raised (Carotis-Sinus-Relief Reflex-CSE). Following that, the substances were injected in increasing doses and 8 min. later the CSE reflex induced again. In periods of 15 min each, in logarithmically rising dosage (factor 2), the test substance was injected again and the CSE value induced again. Substances which under these conditions weaken the rise of the blood pressure under CSE can be regarded as vasodilating. To estimate the blood pressure lowering quality, the dose was calculated which weakens the CSE reflex by 30 mm Hg (ED-30 mm Hg).

[2] = system: cardiac β-receptors (beta 1); test: Beta-receptor blocking activity: inhibition of isoprenaline (1 mcg/kg i.v.) induced heart rate increase (beta 1-blockage) in rabbits; type: in vivo, rabbit; conditions: for β1-Blockade ID30 fcor / β1-Blockade ID50 fcor: i.v., rabbits; for β1-Blockade ID30 fcor: 30% inhibition of isoprenaline effect on heart rate; for β1-Blockade ID50 fcor: 50% inhibition of isoprenaline effect on heart rate
Experimental: Rabbits were fixed in wooden cages and the blood pressure derived using a catheter placed in the lateral ear artery (details as under 2.). From the blood pressure pulsations, the heart rate was digitally read using an integrator. The beta-receptor blocking quality was determined by measuring inhibitory action against 1 mcg/kg i.v. isoprenaline.

[3] = Tolerability of i.v. doses; conditions: in vivo, iv
[4] = dose weakening the CSE reflex by 30 mm Hg, anesthetized rabbits, read-out: Vasodilatation CSE ED-30
[5] = statement in text on reference substances, read-out: ED-30 (vasodilating quality)
[6] = read-out: Vasodilatation CSE ED-30

Structure (SMILES) | vasodilating quality (in words) [1] | ED (30 mm Hg) [1, 4] | ED (30 mm Hg) [1, 5] | BQ (ID50 fcor / ED-30 mm Hg) [1] | beta-blocking activity (in words) [2] | β1-Blockade ID30 fcor [2] | β1-Blockade ID50 fcor [2] | MTD ([3]; not tolerated at all, read-out: dose above which not tolerated at all) | MTD ([3]; poorly tolerated, read-out: dose above which poorly tolerated) | ED (30 mm Hg) ([1]; read-out: ED-30 (vasodilating quality)) | ED (30 mm Hg) [1, 6]
COc1ccc(CCNCC(O)COc2cccc3c2CC(=O)N3)cc1 (stereo not drawn) [BM 12.946, 4-<2-hydroxy-3-[2-(4-methoxyphenyl)ethylamino]propoxy>oxindol, reference compound] | do not have or at least do not have any relevantly vasodilating quality | 9.13 mg/kg | > 9 mg/kg | 0,02 | potent beta-blockers | 46 µg/kg | 188 µg/kg |  |  |  | 
CC(C)NCC(O)COc1cccc2ccccc12 (stereo not drawn) [Propranolol, 1-(isopropylamino)-3-(1-naphthyloxy)-2-propanol, reference compound] | do not have or at least do not have any relevantly vasodilating quality |  |  | 0,01 | potent beta-blockers | 126 µg/kg |  | > 30 mg/kg | > 10 mg/kg | > 9 mg/kg | 30 mg/kg
O=C(O)c1ccccc1.O=C1Nc2cccc(OCC(O)CNCCOc3ccc(O)cc3)c2C1=Cc1ccccc1O (stereo not drawn) [Example 1p, 4-{2-hydroxy-3-[2-(4-hydroxyphenoxy)-ethylamino]-propoxy}-3-(2-hydroxybenzylidene)-indolin-2-one benzoate] |  |  |  | 1,24 |  | 192 µg/kg | 932 µg/kg |  |  |  | 0.75 mg/kg
CC(C)NCC(O)COc1cccc2c1CC(=O)N2 (stereo not drawn) [BM 14.171, 4-(2-hydroxy-3-isopropylaminopropoxy)oxindol, reference compound] | do not have or at least do not have any relevantly vasodilating quality | 11.6 mg/kg | > 9 mg/kg | 0,0004 | potent beta-blockers | 1,2 mcg/kg | 4,3 mcg/kg |  |  |  | 
O=C(O)/C=C/C(=O)O.O=C1Nc2cccc(OCC(O)CNCCOc3ccc(O)cc3)c2C1Cc1ccn[nH]1 (stereo not drawn) [Example 7e, 4-{2-hydroxy-3-[2-(4-hydroxyphenoxy)-ethylamino]-propoxy}-3-(pyrazol-5-yl-methyl)-indolin-2-one fumarate] |  | 0.54 mg/kg |  | 0,47 |  | 65 µg/kg | 254 µg/kg |  |  |  | 
O=C1Nc2cccc(OCC(O)CNCCOc3ccc(O)cc3)c2C1Cc1ccccc1O (stereo not drawn) [Example 7d, 4-{2-hydroxy-3-[2-(4-hydroxyphenoxy)-ethylamino]-propoxy}-3-(2-hydroxybenzyl)-indolin-2-one cyclohexylsulphaminate] |  | 0.97 mg/kg |  | 0,09 |  | 27 µg/kg | 85 µg/kg |  |  |  | 
CC(C)NCC(O)COc1cccc2c1C(=Cc1ccccc1O)C(=O)N2 (stereo not drawn) [Example 1a, 4-(2-hydroxy-3-isopropylaminopropoxy)-3-(2-hydroxybenzylidene)-indolin-2-one] |  | 2.71 mg/kg |  | 0,12 |  | 98 µg/kg | 317 µg/kg |  |  |  | 
O=C(O)/C=C/C(=O)O.O=C1Nc2cccc(OCC(O)CNCCOc3ccccc3)c2C1Cc1ccn[nH]1 (stereo not drawn) [Example 7f, 4-[2-hydroxy-3-(2-phenoxyethylamino)-propoxy]-3-(pyrazol-5-yl-methyl)-indolin-2-one fumarate] |  | 0.43 mg/kg |  | 2,37 |  | 334 µg/kg | 1020 µg/kg |  |  |  | 
CSc1ccc(C=C2C(=O)Nc3cccc(OCC(O)CNC(C)C)c32)c(O)c1 (stereo not drawn) [Example 1d, 4-(2-hydroxy-3-isopropylaminopropoxy)-3-(2-hydroxy-4-methylthiobenzylidene)-indolin-2-one] |  | 1.48 mg/kg |  | 0,03 |  | 21 µg/kg | 46 µg/kg |  |  |  | 
O=C1Nc2cccc(OCC(O)CNCCOc3ccc(O)cc3)c2C1=Cc1ccccc1C(=O)O (stereo not drawn) [Example 1r, 4-{2-hydroxy-3-[2-(4-hydroxyphenoxy)-ethylamino]-propoxy}-3-(2-carboxybenzylidene)-indolin-2-one] |  | 2.03 mg/kg |  | 0,41 |  | 205 µg/kg | 823 µg/kg |  |  |  | 
O=C1Nc2cccc(OCC(O)CNCCOc3ccccc3)c2C1=Cc1ccn[nH]1 (stereo not drawn) [Example 1u, 4-[2-hydroxy-3-(2-phenoxyethylamino)-propoxy]-3-(pyrazol-5-yl)-methyleneindolin-2-one] |  | 0.331 mg/kg |  | 0,18 |  | 9,9 mcg/kg | 58 µg/kg |  |  |  | 
